{"source": "BigSolDB 2.1", "data": [{"smiles": "COc1ccc(-n2nc(C(N)=O)c3c2C(=O)N(c2ccc(N4CCCCC4=O)cc2)CC3)cc1", "values": [{"measurement": "solubility (mole fraction)", "setting": "in acetone, 288.15 K", "result": 0.00024}, {"measurement": "solubility (mole fraction)", "setting": "in acetone, 293.15 K", "result": 0.000276}, {"measurement": "solubility (mole fraction)", "setting": "in acetone, 298.15 K", "result": 0.00032}, {"measurement": "solubility (mole fraction)", "setting": "in acetone, 303.15 K", "result": 0.000377}, {"measurement": "solubility (mole fraction)", "setting": "in acetone, 308.15 K", "result": 0.000436}, {"measurement": "solubility (mole fraction)", "setting": "in acetone, 313.15 K", "result": 0.00051}, {"measurement": "solubility (mole fraction)", "setting": "in acetone, 318.15 K", "result": 0.000584}, {"measurement": "solubility (mole fraction)", "setting": "in acetone, 323.15 K", "result": 0.000669}, {"measurement": "solubility (mole fraction)", "setting": "in acetone, 328.15 K", "result": 0.000754}, {"measurement": "solubility (mole fraction)", "setting": "in ethanol, 288.15 K", "result": 0.000112}, {"measurement": "solubility (mole fraction)", "setting": "in ethanol, 293.15 K", "result": 0.000144}, {"measurement": "solubility (mole fraction)", "setting": "in ethanol, 298.15 K", "result": 0.00018}, {"measurement": "solubility (mole fraction)", "setting": "in ethanol, 303.15 K", "result": 0.00022}, {"measurement": "solubility (mole fraction)", "setting": "in ethanol, 308.15 K", "result": 0.000268}, {"measurement": "solubility (mole fraction)", "setting": "in ethanol, 313.15 K", "result": 0.00033}, {"measurement": "solubility (mole fraction)", "setting": "in ethanol, 318.15 K", "result": 0.000402}, {"measurement": "solubility (mole fraction)", "setting": "in ethanol, 323.15 K", "result": 0.000474}, {"measurement": "solubility (mole fraction)", "setting": "in ethanol, 328.15 K", "result": 0.000572}, {"measurement": "solubility (mole fraction)", "setting": "in isopropanol, 288.15 K", "result": "6.12e-05"}, {"measurement": "solubility (mole fraction)", "setting": "in isopropanol, 293.15 K", "result": "7.67e-05"}, {"measurement": "solubility (mole fraction)", "setting": "in isopropanol, 298.15 K", "result": "9.95e-05"}, {"measurement": "solubility (mole fraction)", "setting": "in isopropanol, 303.15 K", "result": 0.000133}, {"measurement": "solubility (mole fraction)", "setting": "in isopropanol, 308.15 K", "result": 0.000167}, {"measurement": "solubility (mole fraction)", "setting": "in isopropanol, 313.15 K", "result": 0.000214}, {"measurement": "solubility (mole fraction)", "setting": "in isopropanol, 318.15 K", "result": 0.000271}, {"measurement": "solubility (mole fraction)", "setting": "in isopropanol, 323.15 K", "result": 0.00033}, {"measurement": "solubility (mole fraction)", "setting": "in isopropanol, 328.15 K", "result": 0.000404}, {"measurement": "solubility (mole fraction)", "setting": "in methanol, 288.15 K", "result": 0.000327}, {"measurement": "solubility (mole fraction)", "setting": "in methanol, 293.15 K", "result": 0.000416}, {"measurement": "solubility (mole fraction)", "setting": "in methanol, 298.15 K", "result": 0.00053}, {"measurement": "solubility (mole fraction)", "setting": "in methanol, 303.15 K", "result": 0.000669}, {"measurement": "solubility (mole fraction)", "setting": "in methanol, 308.15 K", "result": 0.000842}, {"measurement": "solubility (mole fraction)", "setting": "in methanol, 313.15 K", "result": 0.00104}, {"measurement": "solubility (mole fraction)", "setting": "in methanol, 318.15 K", "result": 0.00128}, {"measurement": "solubility (mole fraction)", "setting": "in methanol, 323.15 K", "result": 0.00156}, {"measurement": "solubility (mole fraction)", "setting": "in methanol, 328.15 K", "result": 0.00188}, {"measurement": "solubility (mole fraction)", "setting": "in water, 288.15 K", "result": "9.68e-06"}, {"measurement": "solubility (mole fraction)", "setting": "in water, 293.15 K", "result": "1.13e-05"}, {"measurement": "solubility (mole fraction)", "setting": "in water, 298.15 K", "result": "1.39e-05"}, {"measurement": "solubility (mole fraction)", "setting": "in water, 303.15 K", "result": "1.67e-05"}, {"measurement": "solubility (mole fraction)", "setting": "in water, 308.15 K", "result": "1.95e-05"}, {"measurement": "solubility (mole fraction)", "setting": "in water, 313.15 K", "result": "2.31e-05"}, {"measurement": "solubility (mole fraction)", "setting": "in water, 318.15 K", "result": "2.74e-05"}, {"measurement": "solubility (mole fraction)", "setting": "in water, 323.15 K", "result": "3.19e-05"}, {"measurement": "solubility (mole fraction)", "setting": "in water, 328.15 K", "result": "3.72e-05"}]}]}
